Assay results as given in US20230212131A1, “COLLAGEN 1 TRANSLATION INHIBITORS AND METHODS OF USE THEREOF” (Anima Biotech Inc., priority 2020, published 2023).

Assays:
collagen 1 (COL1) = test: WI-38 collagen 1 inhibition assay; assay type: cell-based, human; conditions: Cellular EC50, WI-38 cells; values are classes of LogEC50
In short: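 WI-38 fibroblasts serum-starved (0.25% FBS 2 h, then none 24 h), then given a collagen induction cocktail together with compound. Cells fixed, immunostained for collagen I with DAPI counterstain, and imaged at 20×; per-cell fluorescence quantified by image analysis.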

Collagen translation = test: Tissue selectivity of collagen translation modulator (FIG. 3); assay type: cell-based
Procedure: Primary human pulmonary fibroblasts (HPF, PromoCell C-12360) were maintained in fibroblast growth medium 2 (PromoCell C-23020) according to manufacture instruction. Collagen synthesis was inducted using the same cocktail as for the WI-38 cells.
Primary human dermal fibroblasts (HDF) (PromoCell C-12302) were maintained in PromoCell's proprietary Fibroblast Growth Medium 2 (ready-to-use, Cat. C-23020). For collagen synthesis induction, cells were seeded on experimental plates for 24 hours followed by addition of collagen induction cocktail. Tested compounds were added together with induction.

Collagen type-I = Collagen type-I immunofluorescence and Col-I mRNA FISH in WI-38 Human Lung Fibroblasts (FIG. 4); assay type: cell-based; conditions: 96 hours incubation (immunofluorescence), 24 hours incubation (FISH of Col-I mRNA)
Procedure: FIG. 4A: WI-38 Human Lung Fibroblasts, 96 hours incubation with compounds. White: Collagen type-I; Gray: DAPI. Immunofluorescence. FIG. 4B: WI-38 Human Lung Fibroblasts, 24 hours incubation with compounds. FISH analysis. White: Col-I mRNA; Gray: DAPI.
Cells in 96-well or 384-well plates were fixed for 20 min in 4% paraformaldehyde (PFA, ENCO, Cat. sc-281692). Following two washes with 1×PBS, cells were treated with hydrogen peroxide (Acros, Cat: 7722-84-1) for 10 minutes and then washed twice with 1×PBS. Cells were then incubated over-night at 4° C. with Anti-Collagen I (Sigma-Aldrich, Cat: C 2456) antibody and washed three times with 1×PBS. […]
Cell images were taken with Operetta (Perkin Elmer, USA), a wide-field fluorescence microscope at 20× magnification. […] In Columbus, cells were identified by their nucleus, using the “Find Nuceli” module and cytoplasm was detected based on the secondary antibody channel. […]
Following RNA FISH experiments, images of cells were taken with Operetta (Perkin Elmer, USA), a wide-field fluorescence microscope at 20× magnification. […] In Columbus, cells were identified by their nucleus, using the “Find Nuceli” module, cytoplasm was detected based on the FISH-channel, and single mRNAs in the cytoplasm and transcription sites in the nucleus were detected using “Find Spots” module. […]

Row | Structure (SMILES) | COL1 Efficacy (LogEC50) (collagen 1 (COL1)) | tissue selectivity (Collagen translation) | level of action on collagen synthesis (Collagen type-I)
1 | O=C(Nc1nc(-c2ccccc2Cl)cs1)c1ccc(N2CCOCC2)cc1 [compound 327, N-[4-(2-chlorophenyl)thiazol-2-yl]-4-morpholino-benzamide] | +++ (+++: <−6) | tissue selective | act at the level of translation
2 | O=C(Nc1nc(-c2cccnc2)cs1)c1ccc(N2CCOCC2)cc1 [compound 352, 4-morpholino-N-[4-(3-pyridyl)thiazol-2-yl]benzamide] | + (+: >−5) | – | –
3 | Cc1ccc(C(=O)Nc2nc(-c3cnn(C)c3)cs2)cn1 [Compound 317, 6-methyl-N-[4-(1-methylpyrazol-4-yl)thiazol-2-yl]pyridine-3-carboxamide] | + (+: >−5) | – | –
4 | CC(=O)N1CCN(c2ccc(C(=O)Nc3nc(-c4ccccc4Cl)cs3)s2)CC1 [Compound 463, 5-(4-acetylpiperazin-1-yl)-N-(4-(2-chlorophenyl)thiazol-2-yl)thiophene-2-carboxamide] | +++ (+++: <−6) | – | –
5 | O=C(Nc1nc(N2CCCC2=O)cs1)c1ccc(N2CCOCC2)cn1 [Compound 395, 5-morpholino-N-(4-(2-oxopyrrolidin-1-yl)thiazol-2-yl)picolinamide] | + (+: >−5) | – | –
6 | CN1CCC(C(=O)N2CCN(c3ccc(C(=O)Nc4nc(-c5ccccc5Cl)cs4)nc3)CC2)CC1 [Compound 483, N-(4-(2-chlorophenyl)thiazol-2-yl)-5-(4-(1-methylpiperidine-4-carbonyl)piperazin-1-yl)picolinamide] | +++ (+++: <−6) | – | –
7 | CN(C)Cc1ccccc1-c1csc(NC(=O)c2ccc(N3CCN(S(C)(=O)=O)CC3)cn2)n1 [Compound 460, N-(4-(2-((dimethylamino)methyl)phenyl)thiazol-2-yl)-5-(4-(methylsulfonyl)piperazin-1-yl)picolinamide hemiformate] | ++ (++: −5 to −6) | – | –
8 | CS(=O)(=O)N1CCN(c2ccc(C(=O)Nc3nc(-c4ccccc4Cl)cs3)nc2)CC1 [Compound 403, N-(4-(2-chlorophenyl)thiazol-2-yl)-5-(4-(methylsulfonyl)piperazin-1-yl)picolinamide] | +++ (+++: <−6) | – | –
9 | CS(=O)(=O)N1CCN(C2CCC(C(=O)Nc3nc(-c4ccccc4Cl)cs3)CC2)CC1 (single isomer, unassigned) [Compound 434, (1s,4s)-N-(4-(2-chlorophenyl)thiazol-2-yl)-4-(4-(methylsulfonyl)piperazin-1-yl)cyclohexane-1-carboxamide] | + (+: >−5) | – | –
